This series can be described thus: in vivo. The following applies: rat, iv, 30 μg/min/kg.

Structures are written as SMILES.

Take `CC/C=C\C/C=C\C/C=C\C/C=C\C/C=C\CCCC(=O)OCCN(CC)CCOC(c1ccccc1)c1ccccc1` [Formula I (compound 1-4)]: the half-life by setting is: (brain (striatum microdialysate, unbound drug)) 49.1 ± 7.3 min; (plasma (femoral vein microdialysate, unbound drug)) 67.6 ± 1.4 min.

In general, half-life refers to how long it takes for the measured level to halve. Low values mean rapid decline, high ones slow decline.

The record behind these values is patent US20150087697A1, “COMPOSITIONS AND METHODS FOR THE TREATMENT OF MUSCLE PAIN” (priority 2012, published 2015).
